Read-outs that look alike come from different tables or passages of the source.
Experiments:
[1] = system: IL-23 stimulated Kit225 T cells (STAT-dependent luciferase reporter); test: Kit225 T cell assay, IL-23-stimulated STAT-dependent luciferase reporter; type: cell-based, human
Procedure: (§1) Kit225 T cells with a stably-integrated STAT-dependent luciferase reporter were plated in RPMI (Gibco) containing 10% heat-inactivated FBS (Gibco) and 100 U/mL PenStrep (Gibco). The cells were then stimulated with either 20 ng/mL human recombinant IL-23 or 200 U/mL human recombinant IFNα (PBL InterferonSource) for 5-6 hours. Luciferase expression was measured using the STEADY-GLO® Luciferase Assay System (Promega) according to the manufacturer's instructions. Inhibition data were calculated by comparison to no inhibitor control wells for 0% inhibition and non-stimulated control wells for 100% inhibition.

[2] = system: IFNα stimulated Kit225 T cells (STAT-dependent luciferase reporter); test: Kit225 T cell assay, IFNα-stimulated STAT-dependent luciferase reporter; type: cell-based, human
Procedure: as §1

[3] = 20 ng/mL human recombinant IL-23, 5-6 hours, read-out: IL-23 Kit225 Reporter (IC50)
[4] = 200 U/mL human recombinant IFNα, 5-6 hours, read-out: IFNα Kit225 Reporter (IC50)
[5] = KIT225, 20 ng/mL human recombinant IL-23, 5-6 hours, read-out: IL-23 Kit225 Reporter (IC50)
[6] = KIT225, 200 U/mL human recombinant IFNα, 5-6 hours, read-out: IFNα Kit225 Reporter (IC50)

Row | IC50 [1, 3] | IC50 [2, 4] | SMILES | also measured
1 | 700 nM | 490 nM | CNC(=O)c1nnc(Nc2cc(C)c(F)cn2)cc1Nc1cccc(-c2ncc(C)s2)c1OC [Example 124] | –
2 | 140 nM | 80 nM | CNC(=O)c1nnc(Nc2cc(C#N)ccn2)cc1Nc1ccccc1S(C)(=O)=O [Example 25] | –
3 | 660 nM | 400 nM | CNC(=O)c1nnc(Nc2cc(C(C)=O)ccn2)cc1Nc1ccccc1S(C)(=O)=O [Example 33] | –
4 | 20 nM | 20 nM | CNC(=O)c1nnc(NC(=O)C2CC2)cc1Nc1cccc(-c2cn(C(C)C)nn2)c1OC [Example 190] | –
5 | – | – | [2H]C([2H])([2H])NC(=O)c1nnc(Nc2ccccn2)cc1Nc1cccc(-c2nnc[nH]2)c1OC [Example 172] | IC50 [1, 5]: 5.45 nM; IC50 [2, 6]: 6.19 nM
6 | 310 nM | 110 nM | CNC(=O)c1nnc(Nc2ccccn2)cc1Nc1cccc(-c2nnc(C)o2)c1SC [Example 203] | –
7 | 100 nM | 60 nM | CNC(=O)c1nnc(Nc2cc(C#N)ccn2)cc1Nc1ccccc1S(C)(=O)=O [Example 11] | –
8 | 420 nM | 610 nM | CNC(=O)c1nnc(NC(=O)C2CC2F)cc1Nc1ccccc1S(C)(=O)=O (stereo not shown) [Example 28] | –
9 | 10 nM | 7.13 nM | CNC(=O)c1nnc(Nc2cc(C)ncn2)cc1Nc1cccc(-c2ncn(C)n2)c1OC [Example 109] | –
10 | 10 nM | 6.92 nM | CNC(=O)c1nnc(Nc2cc(C)nc(C)n2)cc1Nc1cccc(-c2cnn(C)n2)c1OC [Example 137] | –
11 | 6.01 nM | 6.48 nM | CNC(=O)c1nnc(Nc2cc(C)nc(C)n2)cc1Nc1cccc(-c2cnn(C)c2)c1OC [Example 57] | –
12 | 1.52 nM | 1.63 nM | CCn1cnc(-c2cccc(Nc3cc(Nc4ccccn4)nnc3C(=O)NC)c2OC)n1 [Example 177] | –
13 | 80 nM | 60 nM | CNC(=O)c1nnc(Nc2cc(C)c(C)nn2)cc1Nc1ccccc1S(C)(=O)=O [Example 21] | –
14 | 40 nM | 20 nM | CNC(=O)c1nnc(NC(=O)C2CC2)cc1Nc1cccc(-c2n[nH]c(C)n2)c1OC [Example 141] | –
15 | 6.56 nM | 3.45 nM | CCc1cc(Nc2cc(Nc3cccc(-c4ncn(C)n4)c3OC)c(C(=O)NC)nn2)ncn1 [Example 68] | –
16 | 6.41 nM | 7.2 nM | CNC(=O)c1nnc(Nc2cc(C)nc(C)n2)cc1Nc1cccc(-c2nc(C)nn2C)c1OC [Example 184] | –
17 | – | – | [2H]C([2H])([2H])NC(=O)c1nnc(NC(=O)C2CC2)cc1Nc1cccc(-c2cc[nH]n2)c1OC [Example 195] | IC50 [1, 5]: 10 nM; IC50 [2, 6]: 20 nM
18 | 10 nM | 3.15 nM | CNC(=O)c1nnc(Nc2cc(C)nc(C)n2)cc1Nc1cccc(-c2nnn(C)n2)c1OC [Example 144] | –
19 | 210 nM | 40 nM | CNC(=O)c1nnc(Nc2cc(C(F)(F)F)ccn2)cc1Nc1ccccc1S(C)(=O)=O [Example 35] | –
20 | 2.96 nM | 1.6 nM | CCc1cc(Nc2cc(Nc3cccc(-c4ncn(C)n4)c3OC)c(C(=O)NC)nn2)nc(C)n1 [Example 115] | –

Row | IC50 [1, 3] | IC50 [2, 4] | SMILES | also measured
21 | 50 nM | 10 nM | CNC(=O)c1nnc(Nc2cc(C)n(C)n2)cc1Nc1cccc(-c2ccn(C)n2)c1OC [Example 93] | –
22 | 10 nM | 10 nM | CNC(=O)c1nnc(Nc2cc(C)ccn2)cc1Nc1ccccc1S(C)(=O)=O [Example 14] | –
23 | 20 nM | 30 nM | CNC(=O)c1nnc(NC(=O)C2CC2)cc1Nc1cccc(-c2ncc(F)cn2)c1OC [Example 116] | –
24 | 70 nM | 20 nM | CNC(=O)c1nnc(Nc2ccc(F)cn2)cc1Nc1cccc(-c2ccccn2)c1OC [Example 77] | –
25 | – | – | [2H]C([2H])([2H])NC(=O)c1nnc(NC(=O)C2CC2)cc1Nc1cccc(-c2nc(C)n(C)n2)c1OC [Example 181] | IC50 [1, 5]: 40 nM; IC50 [2, 6]: 20 nM
26 | 190 nM | 170 nM | CNC(=O)c1nnc(Nc2cc(CO)ccn2)cc1Nc1ccccc1S(C)(=O)=O [Example 34] | –
27 | 100 nM | 20 nM | CNC(=O)c1nnc(NC(=O)C2CC2)cc1Nc1cccc(-c2nc(C)cs2)c1OC [Example 95] | –
28 | 20 nM | 10 nM | CNC(=O)c1nnc(Nc2cc(C)c(F)cn2)cc1Nc1cccc(-c2nnc(C)o2)c1OC [Example 150] | –
29 | 20 nM | 10 nM | CNC(=O)c1nnc(Nc2cc(C)c(F)cn2)cc1Nc1cccc(-c2cscn2)c1OC [Example 129] | –
30 | 5.9 nM | 6.81 nM | CNC(=O)c1nnc(Nc2cccnn2)cc1Nc1cccc(-c2ncccn2)c1OC [Example 123] | –
31 | 9.7 nM | 10 nM | CNC(=O)c1nnc(Nc2cc(C)nc(C)n2)cc1Nc1cccc(-c2cscn2)c1OC [Example 130] | –
32 | 20 nM | 10 nM | CNC(=O)c1nnc(Nc2cccc(C)n2)cc1Nc1ccccc1S(C)(=O)=O [Example 30] | –
33 | 210 nM | 150 nM | C#Cc1cccc(Nc2cc(NC(=O)C3CC3)nnc2C(=O)NC)c1OC [Example 139] | –
34 | 10 nM | 20 nM | CNC(=O)c1nnc(Nc2cc(C)nc(C)n2)cc1Nc1cccc(-c2nc(C)cs2)c1OC [Example 97] | –
35 | 170 nM | 50 nM | CNC(=O)c1nnc(NC(=O)C2CC2)cc1Nc1cccc(-c2nnc(C)o2)c1OC [Example 149] | –
36 | 230 nM | 390 nM | CNC(=O)c1nnc(Nc2ccccn2)cc1Nc1cccc(C(=O)NCCCO)c1OC [Example 170] | –
37 | 20 nM | 20 nM | CNC(=O)c1nnc(Nc2cc(C)c(F)cn2)cc1Nc1cccc(-c2cnn(C)c2)c1OC [Example 59] | –
38 | 70 nM | 50 nM | CNC(=O)c1nnc(Nc2ccc(C(=O)OC)cn2)cc1Nc1ccccc1S(C)(=O)=O [Example 32] | –
39 | 230 nM | 150 nM | CNC(=O)c1nnc(Nc2cc(C(C)O)ccn2)cc1Nc1cccc(-c2cscn2)c1OC (stereo not shown) [Example 157] | –
40 | 560 nM | 220 nM | CNC(=O)c1nnc(Nc2ccc(CO)cn2)cc1Nc1ccccc1S(C)(=O)=O [Example 49] | –

Row | IC50 [1, 3] | IC50 [2, 4] | SMILES | also measured
41 | 160 nM | 100 nM | CNC(=O)c1nnc(Nc2ccc(OC)cn2)cc1Nc1ccccc1S(C)(=O)=O [Example 22] | –
42 | 10 nM | 7.37 nM | CNC(=O)c1nnc(Nc2cc(C)ncn2)cc1Nc1cccc(-c2ncccn2)c1OC [Example 119] | –
43 | 190 nM | 230 nM | CNC(=O)c1nnc(Nc2ccccn2)cc1Nc1cccc(-c2ccnn2C)c1OC [Example 199] | –
44 | 30 nM | 10 nM | CNC(=O)c1nnc(Nc2ccn(C)n2)cc1Nc1cccc(-c2ncccn2)c1OC [Example 111] | –
45 | 250 nM | 60 nM | CNC(=O)c1nnc(NC(=O)C2CC2)cc1Nc1cccc(-n2cccn2)c1OC [Example 64] | –
46 | 250 nM | 100 nM | CNC(=O)c1nnc(Nc2cc(OC(C)C)nc(C)n2)cc1Nc1ccccc1S(C)(=O)=O [Example 44] | –
47 | 30 nM | 3.2 nM | CNC(=O)c1nnc(Nc2ccc(C)nn2)cc1Nc1cccc(-c2ncccn2)c1OC [Example 122] | –
48 | 80 nM | 30 nM | CNC(=O)c1nnc(Nc2ccccn2)cc1Nc1cccc(-c2ncc(C)s2)c1OC [Example 117] | –
49 | – | – | CNC(=O)c1nnc(Nc2ccccn2)cc1Nc1cccc(-c2ncn(C)n2)c1SC [Example 205] | IC50 [1, 5]: 140 nM; IC50 [2, 6]: 50 nM
50 | – | – | [2H]C([2H])([2H])NC(=O)c1nnc(Nc2ccccn2)cc1Nc1cccc(C(=O)NCCOC)c1OC [Example 164] | IC50 [1, 5]: 300 nM; IC50 [2, 6]: 170 nM
51 | – | – | [2H]C([2H])([2H])NC(=O)c1nnc(NC(=O)C2CC2)cc1Nc1cccc(-c2cc(C)[nH]n2)c1OC [Example 200] | IC50 [1, 5]: 80 nM; IC50 [2, 6]: 30 nM
52 | 40 nM | 60 nM | CNC(=O)c1nnc(NC(=O)C2CC2)cc1Nc1cccc(-c2cnn(C)c2)c1OC [Example 63] | –
53 | 2.64 nM | 2.33 nM | CNC(=O)c1nnc(Nc2cc(C)nc(C)n2)cc1Nc1cccc(-c2ncccn2)c1OC [Example 121] | –
54 | – | – | [2H]C([2H])([2H])NC(=O)c1nnc(NC(=O)C2CC2)cc1Nc1cccc(-c2nc[nH]n2)c1OC [Example 173] | IC50 ([1]; Homo sapiens, KIT225, read-out: IL-23 Kit225 Reporter (IC50, nM)): 120 nM; IC50 ([2]; Homo sapiens, KIT225, read-out: IFNα Kit225 Reporter (IC50, nM)): 20 nM
55 | 160 nM | 190 nM | CNC(=O)c1nnc(Nc2cc(C)nc(COC)n2)cc1Nc1ccccc1S(C)(=O)=O [Example 41] | –
56 | 150 nM | 30 nM | CNC(=O)c1nnc(NC(=O)C2CC2)cc1Nc1cccc(-c2cnn(CC(C)(C)O)c2)c1OC [Example 189] | –
57 | 30 nM | 10 nM | CNC(=O)c1nnc(Nc2ccccn2)cc1Nc1cccc(-c2ncnn2C)c1OC [Example 178] | –
58 | 60 nM | 20 nM | CNC(=O)c1nnc(Nc2ccccn2)cc1Nc1cccc(-n2cccn2)c1OC [Example 65] | –
59 | 40 nM | 30 nM | CNC(=O)c1nnc(NC(=O)C2CC2)cc1Nc1cccc(-c2cscn2)c1OC [Example 126] | –

Row | SMILES | IC50 [1, 3] | IC50 [2, 4] | also measured
60 | Cc1cc(Nc2cc(Nc3ccccc3S(C)(=O)=O)c(C(N)=O)nn2)ncc1F [Example 18] | 100 nM | 30 nM | –
61 | CNC(=O)c1nnc(Nc2ccc(C)nn2)cc1Nc1ccccc1S(C)(=O)=O [Example 19] | 90 nM | 90 nM | –
62 | CNC(=O)c1nnc(NC(=O)C2CC2)cc1Nc1ccccc1S(C)(=O)=O [Example 17] | 570 nM | 360 nM | –
